Consider 9 molecules from patent publication US20100144755A1 (Glaxo Group Limited, priority 2006, published 2010).

Where a name gives a salt, the structure may show the parent alone.

This assay deals with influx of neutrophils to the lung in LPS-challenged rats. The assay is described as follows: Rat LPS neutrophilia model. The class given is in vivo. The settings on record: LPS aerosol, intratracheal dosing, in at least one of the range of conditions tested, significance p<0.05. On the procedure:
Rat LPS Neutrophilia Model
The effect of compounds on the influx of neutrophils to the lung in LPS-challenged rats is evaluated as follows. The test compound is suspended in one of the following solutions: 0.5% tween 80/PBS, 0.5% tween 80/saline, 10% EtOH/saline (with pH adjusted to 2.0, or 8.0 with HCl, or unadjusted), Saline @pH 2.0, 6.5 or 8.0, 0.5% Tragacanth, 1% DMSO/20% Encapsin/Saline, or acidified 5% Tragacanth. The suspension process may be aided by the use of a glass homogenizer. For intratracheal administration, the animals are anesthetized with inhaled isoflurane and placed in a supine position, the trachea is intubated with a steel gavage needle (1.5 inch, 22 gauge, small ball) or a Penn-Century Microsprayer Aerosolizer (model IA-1B) and 200 ul of dosing solution is delivered. The animals are visually monitored during the recovery process, which typically occurs within two minutes. It is noted that the test compounds may be alternatively administered via the microsprayer in a dry powder blend with a suitable excipient, such as lactose.
Rats treated with compound or vehicle (15 min-24 hours pretreatment) are exposed to an LPS aerosol (100 ug/ml) for 15 min. Four hours later the rats are euthanized with pentobarbital (100 mg/kg, i.p.) and the airways are lavaged with 5 washes of 5 ml of phosphate buffered saline. The harvested cells are stained (Diffquick) and counted to determine total and differential cell data. […] Inhibition of neutrophil levels relative to no compound controls is calculated based on the differential counts.
The data is obtained as % inhibition using a particular concentration and pretreat time.
For the molecule `Cc1ccc(C(=O)NCCc2ccccc2)cc1-c1nc(NC2CC(C)(C)NC(C)(C)C2)nc2c1ccc(=O)n2-c1c(F)cccc1F` [Example 28, 3-{8-(2,6-difluorophenyl)-7-oxo-2-[(2,2,6,6-tetramethyl-4-piperidinyl)amino]-7,8-dihydropyrido[2,3-d]pyrimidin-4-yl}-4-methyl-N-(2-phenylethyl)benzamide], the inhibition of neutrophilia result is “statistically nonsignificant inhibition”.
Take `CNCCNc1nc(-c2cc(C(=O)NCCc3ccccc3)ccc2C)c2ccc(=O)n(-c3c(F)cccc3F)c2n1` [Example 29, 3-(8-(2,6-difluorophenyl)-2-{[2-(methylamino)ethyl]amino}-7-oxo-7,8-dihydropyrido[2,3-d]pyrimidin-4-yl)-4-methyl-N-(2-phenylethyl)benzamide]: the inhibition of neutrophilia result was “statistically significant inhibition”.
As to `Cc1ccc(C(=O)NC(C)C)cc1-c1nc(N(C)CCCN(C)C)nc2c1ccc(=O)n2-c1c(F)cccc1F` [Example 34, 3-{8-(2,6-difluorophenyl)-2-[[3-(dimethylamino)propyl](methyl)amino]-7-oxo-7,8-dihydropyrido[2,3-d]pyrimidin-4-yl}-4-methyl-N-(1-methylethyl)benzamide], the inhibition of neutrophilia entry is reported as “statistically significant inhibition”.
To `Cc1ccc(NC(=O)c2cccc3cc[nH]c23)cc1-c1nc(NC(CO)CO)nc2c1ccc(=O)n2-c1c(F)cccc1F` [Example 44, N-[3-(8-(2,6-difluorophenyl)-2-{[2-hydroxy-1-(hydroxymethyl)ethyl]amino}-7-oxo-7,8-dihydropyrido[2,3-d]pyrimidin-4-yl)-4-methylphenyl]-1H-indole-7-carboxamide trifluoroacetate] belongs “statistically significant inhibition”; to `CNCCNc1nc(-c2cc(C(=O)NC(C)C)ccc2C)c2ccc(=O)n(-c3c(F)cccc3F)c2n1` [Example 57, 3-(8-(2,6-difluorophenyl)-2-{[2-(methylamino)ethyl]amino}-7-oxo-7,8-dihydropyrido[2,3-d]pyrimidin-4-yl)-4-methyl-N-(1-methylethyl)benzamide], “statistically significant inhibition”.
Take `CNCCNc1nc(-c2cc(C(=O)NC3CCCC3)ccc2C)c2ccc(=O)n(-c3c(F)cccc3F)c2n1` [Example 58, N-cyclopentyl-3-(8-(2,6-difluorophenyl)-2-{[2-(methylamino)ethyl]amino}-7-oxo-7,8-dihydropyrido[2,3-d]pyrimidin-4-yl)-4-methylbenzamide]: the inhibition of neutrophilia entry is “statistically significant inhibition”.
On to `CNCCNc1nc(-c2cc(C(=O)NCc3ccccc3)ccc2C)c2ccc(=O)n(-c3c(F)cccc3F)c2n1` [Example 59, 3-(8-(2,6-difluorophenyl)-2-{[2-(methylamino)ethyl]amino}-7-oxo-7,8-dihydropyrido[2,3-d]pyrimidin-4-yl)-4-methyl-N-(phenylmethyl)benzamide], for which the inhibition of neutrophilia result is recorded as “statistically significant inhibition”.
To `CNCCNc1nc(-c2cc(C(=O)Nc3ccc(F)cc3)ccc2C)c2ccc(=O)n(-c3c(F)cccc3F)c2n1` [Example 60, 3-(8-(2,6-difluorophenyl)-2-{[2-(methylamino)ethyl]amino}-7-oxo-7,8-dihydropyrido[2,3-d]pyrimidin-4-yl)-N-(4-fluorophenyl)-4-methylbenzamide] belongs “statistically significant inhibition”; to `CNCCNc1nc(-c2cc(C(=O)Nc3nccs3)ccc2C)c2ccc(=O)n(-c3c(F)cccc3F)c2n1` [Example 61, 3-(8-(2,6-difluorophenyl)-2-{[2-(methylamino)ethyl]amino}-7-oxo-7,8-dihydropyrido[2,3-d]pyrimidin-4-yl)-4-methyl-N-1,3-thiazol-2-ylbenzamide], “statistically significant inhibition”.
